# According to patent US20110136990A1, “POLYMER DERIVATIVE OF DOCETAXEL, METHOD OF PREPARING THE SAME AND USES THEREOF” (priority 2008, published 2011):
# Columns and labels:
# Format in all cases: in vivo
# [1] = test system: human prostate cancer PC-3 cells; test: Drug efficacy test using human prostate cancer PC-3 cells (tumor volume); settings: nude mice, PC-3 xenograft, 15 mg/kg, tail vein every four days, three times
# Description: Using the polymer derivative of docetaxel (PEG-pAsp-14DTX) obtained in Example 1, the following experiment was carried out. PC-3 cells were purchased from ATCC through Summit Pharmaceuticals International Corporation. PC-3 cells were cultured in a RPMI1640+10% FBS medium at 5% CO2 and 37° C., and grown to the cell number required for xenograft. The cells were suspended in physiological saline, and inoculated subcutaneously at the back of the male nude mice [Balb nu/nu, 5 week-old, Charles River Laboratories Japan, Inc.] to 3×10^6 cells/100 μl per mouse. Then, the nude mice were kept for 15 days, and drug administration was started when the tumor volume reached 81.6±5.0 mm^3 (mean±SE, in which SE represents the standard error, the same shall apply hereinafter). […] For the following four groups (n=8), changes in tumor volume and body weight over time were determined: (1) Control group (untreated), (2) 15 mg/kg of a DMSO solution of docetaxel group, (3) 15 mg/kg of PEG-pAsp-14DTX group, and (4) 20 mg/kg of PEG-pAsp-14DTX group (the dosage was the converted amount of docetaxel mg/kg/injection). […] For tumor volume, the major dimension (a mm) and the minor dimension (b mm) were measured with an electronic caliper [Mitsutoyo Corporation], and the volume was calculated according to the following equation. […]
# [2] = Changes in body weight of mice bearing PC-3 cells; settings: nude mice bearing PC-3, 15 mg/kg, tail vein every four days, three times
# Description: Using the polymer derivative of docetaxel (PEG-pAsp-14DTX) obtained in Example 1, the following experiment was carried out. PC-3 cells were purchased from ATCC through Summit Pharmaceuticals International Corporation. PC-3 cells were cultured in a RPMI1640+10% FBS medium at 5% CO2 and 37° C., and grown to the cell number required for xenograft. The cells were suspended in physiological saline, and inoculated subcutaneously at the back of the male nude mice [Balb nu/nu, 5 week-old, Charles River Laboratories Japan, Inc.] to 3×10^6 cells/100 μl per mouse. Then, the nude mice were kept for 15 days, and drug administration was started when the tumor volume reached 81.6±5.0 mm^3 (mean±SE, in which SE represents the standard error, the same shall apply hereinafter). […] For the following four groups (n=8), changes in tumor volume and body weight over time were determined: (1) Control group (untreated), (2) 15 mg/kg of a DMSO solution of docetaxel group, (3) 15 mg/kg of PEG-pAsp-14DTX group, and (4) 20 mg/kg of PEG-pAsp-14DTX group (the dosage was the converted amount of docetaxel mg/kg/injection). […] For tumor volume, the major dimension (a mm) and the minor dimension (b mm) were measured with an electronic caliper [Mitsutoyo Corporation], and the volume was calculated according to the following equation.
# [3] = Pharmacokinetic study in mice (plasma levels of DTX); settings: male Balb/c mice, tail vein, 10 mg/kg, 5 minutes to 48 hours
# Description: Ten mg in terms of DTX of the polymer derivative of docetaxel (PEG-pAsp-14DTX) obtained in Example 1 was precisely weighed into a sample vial, to which 1 ml of purified water was added to suspend the sample. After stirring at 4° C. for a whole day and night, it was sonicated under ice cooling for 10 minutes using a Biodisruptor (Nihon Seiki Seisakusho, High Power Unit), filtered with a 0.22 μm filter [Millipore, Millex (registered trademark) GP PES], and the filtrate was collected. The filtrate was gel-filtered (GE Healthcare Bioscience, PD-10, the elution solution: a 10% sucrose solution), and the collected polymer micelle fraction (the mean particle size 120 nm) was used in the following experiment. […]
# DTX in the polymer-bound form was hydrolyzed to a free form, and total DTX was determined as follows. […] This was loaded in a HPLC sample vial and analyzed by HPLC under the following condition. The content of DTX was calculated based on the ratio of the peak area of DTX relative to the peak area derived from paclitaxel, which was used as the internal standard.
# To 50 μl of the collected plasma, 20 μl of paclitaxel/50% acetonitrile (20 μg/mL) as the internal standard and 300 μl of ethyl acetate were added in this order, and stirred vigorously for one minute at room temperature. […] This was loaded in a HPLC sample vial and analyzed by HPLC […]
Structure (SMILES),tumor growth compared to control group [1],reduction in body weight [2],changes in plasma levels with time (docetaxel) [3]
"CC(=O)O[C@@]12CO[C@@H]1C[C@H](O)[C@@]1(C)C(=O)[C@H](O)C3=C(C)[C@@H](OC(=O)[C@H](O)[C@@H](NC(=O)OC(C)(C)C)c4ccccc4)C[C@@](O)([C@@H](OC(=O)c4ccccc4)[C@H]21)C3(C)C [DMSO solution of docetaxel, docetaxel]",tumor growth was markedly suppressed,marked reduction in body weight,–
"CC(=O)O[C@@]12CO[C@@H]1C[C@H](O)[C@@]1(C)C(=O)[C@H](O)C3=C(C)[C@@H](OC(=O)[C@H](O)[C@@H](NC(=O)OC(C)(C)C)c4ccccc4)C[C@@](O)([C@@H](OC(=O)c4ccccc4)[C@H]21)C3(C)C [docetaxel solution, docetaxel]",–,–,disappears rapidly
